In ChEMBL document CHEMBL1201862, “PubChem BioAssay data set” (2004):
Activity calls are given as the source filed them.

Experiments:
[1] = inhibitors of CMV-promoter luciferase reporter, dose response, counter-screen for Pax8 inhibitor project, cell-based, HEK293, luminescence, dry powder (AID 743020); format: functional
Paired box protein Pax-8 = Paired box protein Pax-8 (Homo sapiens, UniProt Q06710); assay: inhibitors of PAX8-driven TPO luciferase reporter, dose response, RMG-I cells, cherry-pick (AID 687027); format: functional, cell-based;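 further: luciferase reporter driven by Pax8 target thyroperoxidase promoter measured by SteadyGlo luminescence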
[2] = target: Disintegrin and metalloproteinase domain-containing protein 17 (Homo sapiens, UniProt P78536); assay: exosite inhibitors of ADAM17, dose response, biochemical (AID 743260)
[3] = cytotoxicity toward DRD oncogenic fibroblasts, dose response, cell-based, non-viral oncogenic, luminescence (AID 1934); format: functional; conditions: Homo sapiens
BJ [4] = assay: cytotoxicity toward BJ-TERT fibroblasts, dose response, cell-based, RAS-independent, luminescence (AID 1933); format: functional; conditions: Homo sapiens
BJ [5] = assay: cells; format: functional, cell-based; conditions: Homo sapiens
[6] = target: T1, Rac GTPase-activating protein 1 (Homo sapiens, UniProt Q9H0H5); assay: MgcRacGAP GTPase-activating activity inhibitors, confirmation, biochemical, ADP Hunter fluorescence, primary and confirmatory (AID 624330); format: functional
T1 sequence (Q9H0H5 whole entry): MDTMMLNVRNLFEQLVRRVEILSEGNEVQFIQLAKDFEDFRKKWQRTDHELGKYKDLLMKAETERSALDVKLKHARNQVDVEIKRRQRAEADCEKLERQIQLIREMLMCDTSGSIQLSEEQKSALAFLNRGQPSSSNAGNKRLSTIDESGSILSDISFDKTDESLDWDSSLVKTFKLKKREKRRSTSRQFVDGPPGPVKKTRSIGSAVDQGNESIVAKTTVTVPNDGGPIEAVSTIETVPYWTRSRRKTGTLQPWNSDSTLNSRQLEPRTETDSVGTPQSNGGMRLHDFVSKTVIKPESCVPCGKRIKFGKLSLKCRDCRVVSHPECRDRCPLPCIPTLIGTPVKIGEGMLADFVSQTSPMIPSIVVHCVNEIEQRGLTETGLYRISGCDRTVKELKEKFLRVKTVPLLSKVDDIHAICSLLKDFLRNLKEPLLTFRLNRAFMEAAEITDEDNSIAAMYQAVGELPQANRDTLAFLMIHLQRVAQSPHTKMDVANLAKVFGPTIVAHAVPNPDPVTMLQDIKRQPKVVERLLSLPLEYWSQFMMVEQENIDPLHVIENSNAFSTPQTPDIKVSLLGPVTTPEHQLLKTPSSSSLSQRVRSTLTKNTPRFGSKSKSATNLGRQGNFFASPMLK

[7] = C. albicans growth with fluconazole, confirmation, fluorescence, retest (AID 2467); format: functional, cell-based
[8] = target: T2, Histone-lysine N-methyltransferase NSD2 (Homo sapiens, UniProt O96028); format: biochemical
T2 sequence (O96028 whole entry): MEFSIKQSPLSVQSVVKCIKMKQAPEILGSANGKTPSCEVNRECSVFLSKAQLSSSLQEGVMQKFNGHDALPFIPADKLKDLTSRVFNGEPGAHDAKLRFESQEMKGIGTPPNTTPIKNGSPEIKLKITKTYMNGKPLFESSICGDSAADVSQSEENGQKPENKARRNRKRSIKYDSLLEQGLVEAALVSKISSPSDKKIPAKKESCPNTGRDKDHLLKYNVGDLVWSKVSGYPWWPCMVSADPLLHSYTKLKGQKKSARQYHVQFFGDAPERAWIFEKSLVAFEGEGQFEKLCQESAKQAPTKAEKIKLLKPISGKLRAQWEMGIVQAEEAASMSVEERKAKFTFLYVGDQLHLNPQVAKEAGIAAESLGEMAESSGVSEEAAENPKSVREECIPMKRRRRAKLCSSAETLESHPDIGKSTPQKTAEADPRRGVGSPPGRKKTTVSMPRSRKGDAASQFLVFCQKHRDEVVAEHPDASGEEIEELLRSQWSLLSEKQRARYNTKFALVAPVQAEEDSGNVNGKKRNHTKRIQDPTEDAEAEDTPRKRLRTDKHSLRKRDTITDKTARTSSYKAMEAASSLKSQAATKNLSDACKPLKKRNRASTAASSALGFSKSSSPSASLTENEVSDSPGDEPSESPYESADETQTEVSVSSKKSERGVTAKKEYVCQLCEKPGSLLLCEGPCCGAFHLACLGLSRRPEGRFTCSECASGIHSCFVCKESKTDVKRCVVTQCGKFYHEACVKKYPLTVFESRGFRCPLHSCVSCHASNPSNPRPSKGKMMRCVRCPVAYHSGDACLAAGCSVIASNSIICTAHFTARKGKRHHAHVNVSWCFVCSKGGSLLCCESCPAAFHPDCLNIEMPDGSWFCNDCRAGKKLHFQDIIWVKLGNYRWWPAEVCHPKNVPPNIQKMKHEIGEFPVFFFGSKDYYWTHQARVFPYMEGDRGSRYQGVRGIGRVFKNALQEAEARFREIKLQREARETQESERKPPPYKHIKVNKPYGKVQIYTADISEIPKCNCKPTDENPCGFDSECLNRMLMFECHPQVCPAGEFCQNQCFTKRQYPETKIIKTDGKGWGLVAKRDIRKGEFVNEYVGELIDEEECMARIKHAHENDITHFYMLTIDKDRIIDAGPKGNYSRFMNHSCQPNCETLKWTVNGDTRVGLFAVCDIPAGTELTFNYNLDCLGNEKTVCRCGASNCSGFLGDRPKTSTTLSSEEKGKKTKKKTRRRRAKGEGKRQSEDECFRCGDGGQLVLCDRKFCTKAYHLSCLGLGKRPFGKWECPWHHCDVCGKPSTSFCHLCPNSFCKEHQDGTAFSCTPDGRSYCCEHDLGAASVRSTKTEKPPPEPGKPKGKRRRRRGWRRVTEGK

[9] = NIH-3T3 fibroblast cytotoxicity, dose response, cytotoxicity control, cell-based, fluorescence, Alamar Blue, secondary assay (AID 2327); format: functional;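 further: NIH-3T3 mouse fibroblasts cultured with fluconazole at 8 µg/mL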
BJ [10] = assay: cytotoxicity toward BJ-TERT-LT-ST fibroblasts, dose response, cell-based, RAS-independent, luminescence (AID 1935); format: functional; conditions: Homo sapiens;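 further: BJ fibroblasts immortalized with TERT plus LT and ST oncogenes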
Nonstructural protein 1 = Nonstructural protein 1 (Influenza A virus, UniProt Q194T2); format: functional, Influenza A virus (A/California/07/2009(H1N1))
[11] = HeLa cell cytotoxicity, dose response, cytotoxicity control for MgcRacGAP inhibitor project (AID 624300); format: functional
[12] = human group III sPLA2 inhibitors, dose response, biochemical, QFRET, IC50 (AID 743457);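 further: green fluorescence rise as the enzyme cleaves BODIPY PC-A2 in liposomes; potency for inhibition of the enzyme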
[13] = HEK293T cell cytotoxicity, dose response, cytotoxicity control for HIV Vif inhibitor project, cherry-picks (AID 652208); format: functional, cell-based
[14] = THP-1 cell cytotoxicity, dose response, cytotoxicity control for Vif-APOBEC3G degradation inhibitor project, THP-1 cells (AID 1117359); format: functional; conditions: Human immunodeficiency virus 1, THP-1
[15] = Fluorescence-based cell-based high throughput dose response assay for inhibitors of the interaction of nucleotide-binding oligomerization domain containing 2 (NOD2) and the receptor-interacting serine-threonine kinase 2 (RIPK2).; format: functional; conditions: Homo sapiens
[16] = HeLa cell cytotoxicity, dose response, cytotoxicity control, 24 h, plate reader, dry powder (AID 686928); format: functional, cell-based
Fatty acid synthase = Fatty acid synthase (Homo sapiens, UniProt P49327); assay: FAS thioesterase domain inhibitors, SAR follow-up, biochemical, endpoint fluorescence intensity, powder samples (AID 652164); format: functional
Protein Wnt-3a = Protein Wnt-3a (Mus musculus, UniProt P27467); assay: SAR analysis of small molecule antagonists of Gli-SUFU in a Wnt3a luminescent reporter assay.; format: functional
[17] = LGR2 antagonists, dose response, cell-based, HEK293, CRE-luciferase reporter, cherry pick (AID 743342); format: functional
[18] = MC4R antagonists, dose response, counter-screen for LGR2 antagonist project, cell-based, plate reader, cherry pick (AID 743444); format: functional;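 further: transfected HEK 293 cells stimulated with alpha-MSH peptide; potency of inhibitors of the alpha-MSH evoked signal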
[19] = HepG2 cell cytotoxicity, dose response, cytotoxicity control, plate reader, cherry-pick, antagonist series (AID 743416); format: functional, cell-based
[20] = A549 cell cytotoxicity, dose response, cytotoxicity control, plate reader, cherry-pick, antagonist series (AID 743412); format: functional, cell-based
[21] = HEK293 cell cytotoxicity, dose response, cytotoxicity control, plate reader, cherry-picked samples (AID 743446); format: functional, cell-based
[22] = HEK293 cell cytotoxicity, dose response, cytotoxicity control, cherry-picks, set 5 (AID 1053117); format: functional, cell-based
[23] = A549 cell cytotoxicity, dose response, cytotoxicity control, cherry-picks, 26 µM top dose (AID 1053119); format: functional, cell-based
[24] = HepG2 cell cytotoxicity, dose response, cytotoxicity control, cherry-picks, set 5 (AID 1053118); format: functional, cell-based
[25] = Cytotoxicity screening for potential Inhibitors of Bacterial Capsule Biogenesis (4).; format: functional
[26] = MITF Measured in Cell-Based System Using Plate Reader - 2084-01_Inhibitor_Dose_DryPowder_Activity_Set6.; format: functional
[27] = A375 melanoma cell cytotoxicity, dose response, counter-screen for MITF inhibitor project, CellTiter-Glo luminescence, dry powder, set 2 (AID 624489); format: functional, cell-based; conditions: A-375;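 further: actives are compounds lowering A375 viability meaning general cytotoxicity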
[28] = MITF Orthogonal Assay: MALME3 CTG Assay Measured in Cell-Based System Using Plate Reader - 2084-04_Inhibitor_Dose_DryPowder_Activity_Set6.; format: functional; conditions: MALME-3
[29] = SK-MEL-5 parental cell viability reduction, dose response, orthogonal assay for MITF inhibitor project, CellTiter-Glo luminescence, dry powder, set 8 (AID 651586); format: functional, cell-based
[30] = MALME3 melanoma cell viability reduction, dose response, orthogonal assay for MITF inhibitor project, CellTiter-Glo luminescence, dry powder, set 5 (AID 651584); format: functional, cell-based; conditions: MALME-3
[31] = A375 melanoma cell cytotoxicity, dose response, counter-screen for MITF inhibitor project, CellTiter-Glo luminescence, dry powder, set 6 (AID 624488); format: functional, cell-based; conditions: A-375
[32] = A375 melanoma cell cytotoxicity, dose response, counter-screen for MITF inhibitor project, CellTiter-Glo luminescence, dry powder, set 7 (AID 624490); format: functional, cell-based; conditions: A-375
[33] = A375 melanoma cell viability loss, dose response, counter-screen for MITF inhibitor project, CellTiter-Glo luminescence, dry powder, set 4 (AID 624364); format: functional, cell-based; conditions: A-375;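 further: A375 melanoma cells are MITF independent so this is a counter screen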
[34] = TRPM1 promoter luciferase reporter signal decrease, dose response, MITF inhibitor project, cell-based, SK-MEL-5, dry powder, set 9 (AID 651588); format: functional
[35] = SK-MEL-5 parental line viability, dose response, MITF inhibitor project, cell-based, CellTiter-Glo, dry powder, set 6 (AID 624429); format: functional
[36] = MITF Measured in Cell-Based System Using Plate Reader - 2084-01_Inhibitor_Dose_DryPowder_Activity_Set7.; format: functional
[37] = MITF Orthogonal Assay: SK-MEL-5 CTG Assay Measured in Cell-Based System Using Plate Reader - 2084-02_Inhibitor_Dose_DryPowder_Activity_Set5.; format: functional
[38] = A375 melanoma cell viability loss, dose response, counter-screen for MITF modulator project, CellTiter-Glo luminescence, dry powder, set 9 (AID 651591); format: functional, cell-based; conditions: A-375

Sequence of Paired box protein Pax-8 (Q06710 whole entry, the tested form may be a part): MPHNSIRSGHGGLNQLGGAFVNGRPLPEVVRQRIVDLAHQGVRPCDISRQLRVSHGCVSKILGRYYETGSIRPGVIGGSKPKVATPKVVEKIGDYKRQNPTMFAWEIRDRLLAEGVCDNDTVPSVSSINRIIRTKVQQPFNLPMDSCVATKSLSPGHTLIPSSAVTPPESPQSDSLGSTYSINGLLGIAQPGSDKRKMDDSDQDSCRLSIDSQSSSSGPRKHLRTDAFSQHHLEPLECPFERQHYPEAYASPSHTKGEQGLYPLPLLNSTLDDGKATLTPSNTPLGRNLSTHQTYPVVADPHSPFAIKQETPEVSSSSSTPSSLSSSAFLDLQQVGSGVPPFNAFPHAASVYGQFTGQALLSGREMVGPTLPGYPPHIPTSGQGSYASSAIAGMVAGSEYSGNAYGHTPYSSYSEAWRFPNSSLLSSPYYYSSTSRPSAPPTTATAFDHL
Sequence of Disintegrin and metalloproteinase domain-containing protein 17 (P78536 whole entry, the tested form may be a part): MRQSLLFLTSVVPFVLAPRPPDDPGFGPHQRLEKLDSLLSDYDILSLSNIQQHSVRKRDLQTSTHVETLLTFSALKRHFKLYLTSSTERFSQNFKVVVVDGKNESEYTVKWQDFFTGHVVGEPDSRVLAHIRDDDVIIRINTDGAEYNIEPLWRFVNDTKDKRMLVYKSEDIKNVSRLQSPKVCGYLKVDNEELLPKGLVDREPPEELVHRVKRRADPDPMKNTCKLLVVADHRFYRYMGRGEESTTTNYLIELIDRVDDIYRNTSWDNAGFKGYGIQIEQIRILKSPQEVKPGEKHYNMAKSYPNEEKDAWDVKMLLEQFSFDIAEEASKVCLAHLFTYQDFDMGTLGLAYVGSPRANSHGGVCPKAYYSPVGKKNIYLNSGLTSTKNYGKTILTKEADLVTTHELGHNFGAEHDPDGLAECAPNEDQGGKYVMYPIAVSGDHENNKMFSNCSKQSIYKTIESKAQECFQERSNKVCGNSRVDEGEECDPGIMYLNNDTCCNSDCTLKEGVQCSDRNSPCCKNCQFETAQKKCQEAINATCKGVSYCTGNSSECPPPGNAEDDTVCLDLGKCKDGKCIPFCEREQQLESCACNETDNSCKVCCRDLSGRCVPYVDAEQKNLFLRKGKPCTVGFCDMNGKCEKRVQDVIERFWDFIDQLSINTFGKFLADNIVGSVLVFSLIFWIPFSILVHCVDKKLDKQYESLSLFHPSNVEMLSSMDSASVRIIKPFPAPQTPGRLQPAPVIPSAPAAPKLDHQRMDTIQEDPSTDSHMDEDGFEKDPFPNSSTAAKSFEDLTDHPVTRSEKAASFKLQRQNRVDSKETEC
Sequence of Fatty acid synthase (P49327 whole entry, the tested form may be a part): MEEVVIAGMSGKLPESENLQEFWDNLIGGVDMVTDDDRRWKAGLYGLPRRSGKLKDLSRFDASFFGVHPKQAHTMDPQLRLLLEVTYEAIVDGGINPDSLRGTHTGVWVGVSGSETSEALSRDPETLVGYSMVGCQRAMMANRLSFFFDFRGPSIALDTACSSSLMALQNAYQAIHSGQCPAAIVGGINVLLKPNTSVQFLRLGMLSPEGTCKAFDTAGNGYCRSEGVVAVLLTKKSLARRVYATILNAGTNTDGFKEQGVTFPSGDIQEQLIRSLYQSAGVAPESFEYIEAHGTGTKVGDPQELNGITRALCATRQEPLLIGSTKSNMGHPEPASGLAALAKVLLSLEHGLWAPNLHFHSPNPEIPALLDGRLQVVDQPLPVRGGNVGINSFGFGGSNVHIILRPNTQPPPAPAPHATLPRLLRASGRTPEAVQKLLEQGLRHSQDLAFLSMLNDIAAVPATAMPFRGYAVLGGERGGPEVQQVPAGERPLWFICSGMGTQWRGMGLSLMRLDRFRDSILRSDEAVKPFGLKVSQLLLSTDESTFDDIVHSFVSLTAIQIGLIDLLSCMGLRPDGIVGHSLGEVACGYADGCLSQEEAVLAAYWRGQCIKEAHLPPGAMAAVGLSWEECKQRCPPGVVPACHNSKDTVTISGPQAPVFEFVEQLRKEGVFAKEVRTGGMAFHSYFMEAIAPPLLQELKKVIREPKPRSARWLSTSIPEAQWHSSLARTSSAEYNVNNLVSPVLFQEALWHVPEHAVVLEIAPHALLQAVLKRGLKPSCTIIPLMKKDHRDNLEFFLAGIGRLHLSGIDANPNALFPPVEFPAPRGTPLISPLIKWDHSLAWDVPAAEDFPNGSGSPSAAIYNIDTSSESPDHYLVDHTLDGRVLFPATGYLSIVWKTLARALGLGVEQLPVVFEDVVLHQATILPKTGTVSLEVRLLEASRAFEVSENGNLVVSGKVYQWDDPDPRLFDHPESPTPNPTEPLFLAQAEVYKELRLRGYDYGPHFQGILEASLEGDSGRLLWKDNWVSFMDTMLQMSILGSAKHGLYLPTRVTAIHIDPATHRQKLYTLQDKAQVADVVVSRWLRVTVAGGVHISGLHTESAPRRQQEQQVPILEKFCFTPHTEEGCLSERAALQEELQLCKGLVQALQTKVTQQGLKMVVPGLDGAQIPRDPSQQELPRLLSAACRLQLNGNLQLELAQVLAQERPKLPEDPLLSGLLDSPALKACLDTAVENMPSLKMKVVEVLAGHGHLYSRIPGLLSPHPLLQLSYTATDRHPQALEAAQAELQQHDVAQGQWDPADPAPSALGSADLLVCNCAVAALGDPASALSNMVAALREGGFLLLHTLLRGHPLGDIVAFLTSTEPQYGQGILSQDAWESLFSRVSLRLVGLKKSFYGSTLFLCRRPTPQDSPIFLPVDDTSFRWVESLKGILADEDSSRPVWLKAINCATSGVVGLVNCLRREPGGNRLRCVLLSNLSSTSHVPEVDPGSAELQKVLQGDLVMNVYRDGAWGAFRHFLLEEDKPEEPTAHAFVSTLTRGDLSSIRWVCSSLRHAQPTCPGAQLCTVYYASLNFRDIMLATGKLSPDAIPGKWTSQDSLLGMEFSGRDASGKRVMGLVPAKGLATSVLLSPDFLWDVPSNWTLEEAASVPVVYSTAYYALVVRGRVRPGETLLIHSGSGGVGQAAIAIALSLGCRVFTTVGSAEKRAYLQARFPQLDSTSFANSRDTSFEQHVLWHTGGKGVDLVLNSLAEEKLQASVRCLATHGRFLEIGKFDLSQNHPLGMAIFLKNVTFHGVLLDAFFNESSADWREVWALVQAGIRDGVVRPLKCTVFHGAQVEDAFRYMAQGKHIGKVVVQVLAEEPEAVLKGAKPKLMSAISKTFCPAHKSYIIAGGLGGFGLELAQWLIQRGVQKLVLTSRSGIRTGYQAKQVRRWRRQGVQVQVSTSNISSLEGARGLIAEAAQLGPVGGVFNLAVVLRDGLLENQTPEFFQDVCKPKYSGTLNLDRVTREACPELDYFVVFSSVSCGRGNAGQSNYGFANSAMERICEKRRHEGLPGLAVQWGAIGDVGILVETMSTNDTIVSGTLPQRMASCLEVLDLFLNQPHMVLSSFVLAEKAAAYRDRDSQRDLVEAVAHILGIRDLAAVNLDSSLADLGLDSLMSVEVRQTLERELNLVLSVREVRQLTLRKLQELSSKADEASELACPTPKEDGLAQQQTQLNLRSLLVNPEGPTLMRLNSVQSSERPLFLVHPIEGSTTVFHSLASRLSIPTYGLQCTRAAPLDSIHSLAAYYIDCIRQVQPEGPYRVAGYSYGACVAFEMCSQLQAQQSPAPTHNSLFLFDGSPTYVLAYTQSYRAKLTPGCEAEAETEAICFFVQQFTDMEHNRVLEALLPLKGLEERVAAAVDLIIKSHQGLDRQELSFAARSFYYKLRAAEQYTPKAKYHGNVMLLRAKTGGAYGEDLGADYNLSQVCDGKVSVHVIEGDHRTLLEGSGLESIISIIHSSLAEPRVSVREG
Sequence of Nonstructural protein 1 (Q194T2 whole entry): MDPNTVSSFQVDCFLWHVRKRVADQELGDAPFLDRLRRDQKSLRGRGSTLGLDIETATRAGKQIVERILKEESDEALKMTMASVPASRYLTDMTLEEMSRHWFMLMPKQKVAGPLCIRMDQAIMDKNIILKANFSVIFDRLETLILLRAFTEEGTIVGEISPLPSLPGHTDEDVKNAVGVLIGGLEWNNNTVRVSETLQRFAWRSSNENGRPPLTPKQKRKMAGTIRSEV
Sequence of Protein Wnt-3a (P27467 whole entry): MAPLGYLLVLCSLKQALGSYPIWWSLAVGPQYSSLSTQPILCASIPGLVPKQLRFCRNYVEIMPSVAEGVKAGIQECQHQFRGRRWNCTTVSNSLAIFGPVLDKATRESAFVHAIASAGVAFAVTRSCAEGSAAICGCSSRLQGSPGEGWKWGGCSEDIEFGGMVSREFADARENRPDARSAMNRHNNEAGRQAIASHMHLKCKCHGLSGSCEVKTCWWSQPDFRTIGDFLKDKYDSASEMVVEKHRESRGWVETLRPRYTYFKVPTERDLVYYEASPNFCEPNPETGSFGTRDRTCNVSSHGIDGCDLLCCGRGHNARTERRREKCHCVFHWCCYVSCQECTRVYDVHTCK

With `CC(=O)c1cc(NC(=O)c2cccc(C(F)(F)F)c2)c(=O)oc1C` the AC50 [1] was < 9 µM (active) and the AC50 (Paired box protein Pax-8) was 15.8 µM (active).

For `CCOc1ccc(NC(=O)CC2SC(=O)N(c3ccccc3)C2=O)cc1` (stereo not drawn), the IC50 [2] was 5.73 µM (active).

With `CN(C)c1ccc(/C=C/C=C/c2sc3ccccc3[n+]2C)cc1.[O-][Cl+3]([O-])([O-])[O-]` the EC50 [3] was 4.85 µM (active), the EC50 (BJ [4]) was 2.83 µM (inconclusive) and the EC50 (BJ [5]) was 4.81 µM (active). The IC50 [6] was 62.6 µM (active), the EC50 [7] was 0.194 µM (active) and the AC50 [8] was 15.8 µM (active). The EC50 [9] was > 150 µM (inactive), the EC50 (BJ [10]) was 29.2 µM (active) and the IC50 (Nonstructural protein 1) was 15 µM (active). For the same compound, the CC50 [11] was 64 µM (active) and the IC50 [12] was 41.6 µM (inactive).

With `C=CC(=O)N1C/C(=C/c2ccc(F)cc2)C(=O)/C(=C\c2ccc(F)cc2)C1` the AC50 [13] was 1.4 µM (active), the CC50 [14] was 0.57 µM (active) and the IC50 [15] was 3.71 µM (active). The AC50 (Paired box protein Pax-8) was 2.36 µM (active).

For `CC(C)c1ccc2cc3c(NC(=O)c4ccco4)nn(C)c3nc2c1`, the AC50 [16] was 91.9 µM (active).

For `O=C(Nc1nc(-c2ccc(S(=O)(=O)N3CCOCC3)cc2)cs1)C1CCCCC1`, the IC50 (Fatty acid synthase) was > 80 µM (inactive).

With `O=C(Nc1cc(N2CCCCCC2)ncn1)c1ccccc1` the IC50 (Protein Wnt-3a) was > 21.8 µM (inactive).

For `C[C@H](CO)N1C[C@H](C)[C@H](CN(C)C(=O)Nc2ccc(F)cc2)OCCCC[C@H](C)Oc2ccc(NC(=O)Nc3ccccc3)cc2C1=O`, the AC50 [17] was 6.77 µM (active), the AC50 [18] was 44.4 µM (active) and the AC50 [19] was 35.2 µM (active). For the same compound, the AC50 [20] was 37 µM (active) and the AC50 [21] was 40.6 µM (active).

In the case of `CO[C@@H]1CN(C)C(=O)c2ccc(NC(=O)c3ccc(-c4ccccc4)cc3)cc2OC[C@H](C)NC[C@H]1C`, the AC50 [22] is reported as 14 µM (active), the AC50 [23] is reported as 13.6 µM (active) and the AC50 [24] is reported as 11.3 µM (active).

In the case of `COc1cc(NC(=O)c2ccc3nc(C)sc3c2)ccn1`, the CC50 [25] is reported as > 300 µM (inactive).

With `O=C(NC1=C(Cl)C(=O)c2ccccc2C1=O)c1ccccc1` the AC50 [26] was 0.459 µM (active), the AC50 [27] was 22.8 µM (active) and the AC50 [28] was 7.33 µM (active). The AC50 [29] was 3.94 µM (active), the AC50 [30] was 7.33 µM (active) and the AC50 [31] was 16.5 µM (active). For the same compound, the AC50 [32] was 23.1 µM (active), the AC50 [33] was 45.9 µM (active) and the AC50 [34] was 1.95 µM (active). The AC50 [35] was 9.85 µM (active), the AC50 [36] was 0.913 µM (active) and the AC50 [37] was 13.5 µM (active). For the same compound, the AC50 [38] was 28.7 µM (active).
